Reference: PubChem BioAssay (NCI)
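Grown in 96-well plates, cells were treated for 48 hours with each compound at five concentrations. Insufficient inhibition: endpoint recorded as highest concentration tested. TGI is the concentration that stops growth completely.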

Legend:
Test in all cases: inhibition of tumour cell growth, NCI panel, 48 h
HL-60(TB) leukemia = system: HL-60(TB) leukemia
RXF 393 renal = system: RXF 393 renal
M14 melanoma = system: M14 melanoma
U251 CNS = system: U251 CNS
SK-MEL-5 melanoma = system: SK-MEL-5 melanoma
UACC-257 melanoma = system: UACC-257 melanoma
DLD-1 colon = system: DLD-1 colon
IGROV1 ovarian = system: IGROV1 ovarian
HOP-62 NSCLC = system: HOP-62 NSCLC
OVCAR-8 ovarian = system: OVCAR-8 ovarian
SW-620 colon = system: SW-620 colon
OVCAR-4 ovarian = system: OVCAR-4 ovarian
HCT-15 colon = system: HCT-15 colon
HCT-116 colon = system: HCT-116 colon
RPMI-8226 leukemia = system: RPMI-8226 leukemia
UO-31 renal = system: UO-31 renal
SF-539 CNS = system: SF-539 CNS
SNB-75 CNS = system: SNB-75 CNS
SNB-19 CNS = system: SNB-19 CNS
OVCAR-3 ovarian = system: OVCAR-3 ovarian

Compound	TGI (HL-60(TB) leukemia)	TGI (RXF 393 renal)	TGI (M14 melanoma)	TGI (U251 CNS)	TGI (SK-MEL-5 melanoma)	TGI (UACC-257 melanoma)	TGI (DLD-1 colon)	TGI (IGROV1 ovarian)	TGI (HOP-62 NSCLC)	TGI (OVCAR-8 ovarian)	TGI (SW-620 colon)	TGI (OVCAR-4 ovarian)	TGI (HCT-15 colon)	TGI (HCT-116 colon)	TGI (RPMI-8226 leukemia)	TGI (UO-31 renal)	TGI (SF-539 CNS)	TGI (SNB-75 CNS)	TGI (SNB-19 CNS)	TGI (OVCAR-3 ovarian)
CCCCN=C1OCc2[nH][nH]c(=O)c21	> 100 µM	> 100 µM	> 100 µM	> 100 µM	> 100 µM	> 100 µM	> 100 µM	> 100 µM	> 100 µM	> 100 µM	> 100 µM	> 100 µM	> 100 µM	> 100 µM	> 100 µM	> 100 µM	> 100 µM	> 100 µM	> 100 µM	–
O=c1nc2sc3ccc4ccccc4c3n2[nH]c1=O	> 100 µM	38.1 µM	–	> 100 µM	> 100 µM	–	> 100 µM	> 100 µM	71.5 µM	> 100 µM	> 100 µM	81.2 µM	–	> 100 µM	–	–	> 100 µM	> 100 µM	> 100 µM	> 100 µM
C[C@]12CC[C@@H]3c4ccc(OCCN5CCCC5)cc4CC[C@H]3[C@@H]1CCC2=O	> 100 µM	> 100 µM	29.4 µM	> 100 µM	30 µM	> 100 µM	–	40.7 µM	44.5 µM	> 100 µM	> 100 µM	> 100 µM	29 µM	–	> 100 µM	61.9 µM	–	–	> 100 µM	68.8 µM
CCCCCCCCCCCCCCCC(=O)OC1C(O)C(CO)OC(OC)C1NC(=O)N(CCCl)N=O (stereo not drawn)	–	–	36.8 µM	19.9 µM	30.2 µM	31.5 µM	31.5 µM	38.3 µM	32.3 µM	38.1 µM	26.1 µM	36.3 µM	54.8 µM	30 µM	> 100 µM	28.5 µM	6.16 µM	24.6 µM	23.8 µM	33.4 µM
